# Results: patent US10588962B2, “Carbohydrate-glycolipid conjugate vaccines” (Max-Planck-Gesellschaft zur Förderung der Wissenschaften …, priority 2012, dated 2020)
# Test: Immunogenic activity of further glycolipids conjugated to PS4
# Settings: glycolipid conjugated to PS4
substance,measurement,value
"(2S,3S,4R)-1-(6-(Carbonyl-1-ethyl-2-(tri(1-ethanoyl)1-ethanoyl-2-amino)-α-D-galactopyranosyl)-2-hexacosanoylaminooctadecane-3,4-diol [Compound 27a]",immunogenic activity,showed immunogenic activity
